Test results as given in patent US6472392B1, “Triazole compounds and the use thereof as dopamine-D3 -ligands” (Abbott Laboratories, priority 1997, dated 2002).

melting point | Structure (SMILES)
156 to 161 °C | Cn1c(C=CCCN2CCN(c3cc(C(C)(C)C)nc(C(C)(C)C)n3)CC2)nnc1-c1ccccc1 [Example 21, 3-{4-[4-(2,6-Di-t-butylpyrimidin-4-yl)piperazin-1-yl]but-1-enyl}-4-methyl-5-phenyl-1,2,4-(4H)-triazole]
144 to 145 °C | Cn1c(CCCCN2CCN(c3cc(C(C)(C)C)nc(C(C)(C)C)n3)CC2)nnc1-c1ccccc1 [Example 22, 3-{4-[4-(2,6-Di-t-butylpyrimidin-4-yl)piperazin-1-yl]butyl}-4-methyl-5-phenyl-1,2,4-(4H)-triazole]
